Reference: patent US6410542B1, “Aminotetrazole derivatives useful as nitric oxide synthase inhibitors” (G. D. Searle & Co., priority 1994, dated 2002)
Structures can show the parent of a compound that is named as a salt.

Experiments:
[1] = Physical properties on exposure to moisture in room air; format: physicochemical; conditions: normal room air
From the text: It is also an advantage in that the compounds of the present invention have preferred physical properties as compared to compounds known in the art. […] In contrast, NIL, which is disclosed in WO 93/13055 when the hydrochloride salt can be isolated as a colorless crystal, but has the property of deliquescence. The compound quickly becomes a very viscous sticky oil upon exposure to moisture in normal room air which makes it difficult to handle.

[2] = target: Human inducible NOS (hiNOS) (Homo sapiens, UniProt P35228); assay: Citrulline assay for nitric oxide synthase, hiNOS; format: biochemical
Chain of Human inducible NOS (hiNOS) (P35228 whole entry): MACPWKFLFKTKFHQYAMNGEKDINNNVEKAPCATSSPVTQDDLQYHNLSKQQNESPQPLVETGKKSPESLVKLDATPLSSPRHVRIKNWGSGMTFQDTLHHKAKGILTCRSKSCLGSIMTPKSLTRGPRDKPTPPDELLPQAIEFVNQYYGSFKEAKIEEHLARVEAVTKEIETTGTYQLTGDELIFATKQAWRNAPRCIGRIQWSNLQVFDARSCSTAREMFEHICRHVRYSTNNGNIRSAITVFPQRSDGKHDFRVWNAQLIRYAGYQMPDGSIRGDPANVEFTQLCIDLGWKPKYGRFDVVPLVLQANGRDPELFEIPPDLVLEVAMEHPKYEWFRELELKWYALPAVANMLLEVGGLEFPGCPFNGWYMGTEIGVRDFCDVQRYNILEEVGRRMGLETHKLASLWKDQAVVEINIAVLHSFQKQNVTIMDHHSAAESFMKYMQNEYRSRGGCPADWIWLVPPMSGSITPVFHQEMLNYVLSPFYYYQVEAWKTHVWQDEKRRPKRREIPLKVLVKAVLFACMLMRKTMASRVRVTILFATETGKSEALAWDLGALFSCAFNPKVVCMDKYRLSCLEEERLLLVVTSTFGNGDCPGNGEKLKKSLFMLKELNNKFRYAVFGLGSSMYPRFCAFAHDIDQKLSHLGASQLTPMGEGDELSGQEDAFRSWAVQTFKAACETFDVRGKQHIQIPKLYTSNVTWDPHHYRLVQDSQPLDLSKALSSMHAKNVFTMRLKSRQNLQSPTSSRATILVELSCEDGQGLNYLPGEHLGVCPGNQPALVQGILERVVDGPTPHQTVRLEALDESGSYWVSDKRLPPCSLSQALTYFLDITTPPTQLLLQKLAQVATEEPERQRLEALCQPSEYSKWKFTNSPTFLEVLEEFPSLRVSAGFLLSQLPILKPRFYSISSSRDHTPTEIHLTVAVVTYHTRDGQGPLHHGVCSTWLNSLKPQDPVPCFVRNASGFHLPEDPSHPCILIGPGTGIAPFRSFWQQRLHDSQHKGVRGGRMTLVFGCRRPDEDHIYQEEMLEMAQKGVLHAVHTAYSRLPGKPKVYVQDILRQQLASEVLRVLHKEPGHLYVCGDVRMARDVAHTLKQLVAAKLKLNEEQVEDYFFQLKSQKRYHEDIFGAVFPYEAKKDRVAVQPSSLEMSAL
Procedure: Citrulline Assay for Nitric Oxide Synthase Nitric oxide synthase activity was measured by monitoring the conversion of L-[2,3-3H]-arginine to L-[2,3-3H]-citrulline (1,2). […] For constitutive NOS, calmodulin was included at a final concentration of 40-100 nM. Following incubation at 37° C. for 15 minutes, the reaction was terminated by addition of 300 μL cold buffer containing 10 mM EGTA, 100 mM HEPES (pH5.5) and 1.0 mM L-citrulline. The [3H]-citrulline was separated by chromatography on Dowex 50W X-8 cation exchange resin and radioactivity quantified with a liquid scintillation counter.

SMILES	physical form / behaviour on exposure to moisture [1]	Selectivity ([2]; hiNOS over hecNOS)	selectivity compared with NIL ([2]; in words)	IC50 ([2]; recombinant enzyme, L-arginine to L-citrulline conversion, 37° C., 15 minutes) [µM]
CC(=N)NCCCC[C@H](N)C(=O)Nc1nnn[nH]1 [Example 1, 2S-amino-6-[(1-iminoethyl)amino]-N-(1H-tetrazol-5-yl) hexanamide, Hydrate, Dihydrochloride]	crystalline product	113	more selective than NIL	21.4
CC(N)=NCCCC[C@@H](N)C(=O)O [NIL, reference compound]	deliquescence	–	–	–
